What was measured:
rTRPV1 [1] = target: T1, rTRPV1 (Rattus norvegicus, UniProt O35433); assay: whole-cell patch clamp, block of capsaicin-evoked current; assay type: cell-based; conditions: channel block; capsaicin 100 nM; HEK293t, -60 mV, room temperature, pH 7.4
hTRPA1 [2] = target: hTRPA1 (Homo sapiens, UniProt O75762, C621S/C641S/C665S); assay: whole-cell patch clamp, evoked inward current; assay type: cell-based
hTRPA1 [3] = target: hTRPA1 (Homo sapiens, UniProt O75762); assay: whole-cell patch clamp, evoked inward current; assay type: cell-based
Sequence of hTRPA1 (Homo sapiens, UniProt O75762) (O75762 whole entry): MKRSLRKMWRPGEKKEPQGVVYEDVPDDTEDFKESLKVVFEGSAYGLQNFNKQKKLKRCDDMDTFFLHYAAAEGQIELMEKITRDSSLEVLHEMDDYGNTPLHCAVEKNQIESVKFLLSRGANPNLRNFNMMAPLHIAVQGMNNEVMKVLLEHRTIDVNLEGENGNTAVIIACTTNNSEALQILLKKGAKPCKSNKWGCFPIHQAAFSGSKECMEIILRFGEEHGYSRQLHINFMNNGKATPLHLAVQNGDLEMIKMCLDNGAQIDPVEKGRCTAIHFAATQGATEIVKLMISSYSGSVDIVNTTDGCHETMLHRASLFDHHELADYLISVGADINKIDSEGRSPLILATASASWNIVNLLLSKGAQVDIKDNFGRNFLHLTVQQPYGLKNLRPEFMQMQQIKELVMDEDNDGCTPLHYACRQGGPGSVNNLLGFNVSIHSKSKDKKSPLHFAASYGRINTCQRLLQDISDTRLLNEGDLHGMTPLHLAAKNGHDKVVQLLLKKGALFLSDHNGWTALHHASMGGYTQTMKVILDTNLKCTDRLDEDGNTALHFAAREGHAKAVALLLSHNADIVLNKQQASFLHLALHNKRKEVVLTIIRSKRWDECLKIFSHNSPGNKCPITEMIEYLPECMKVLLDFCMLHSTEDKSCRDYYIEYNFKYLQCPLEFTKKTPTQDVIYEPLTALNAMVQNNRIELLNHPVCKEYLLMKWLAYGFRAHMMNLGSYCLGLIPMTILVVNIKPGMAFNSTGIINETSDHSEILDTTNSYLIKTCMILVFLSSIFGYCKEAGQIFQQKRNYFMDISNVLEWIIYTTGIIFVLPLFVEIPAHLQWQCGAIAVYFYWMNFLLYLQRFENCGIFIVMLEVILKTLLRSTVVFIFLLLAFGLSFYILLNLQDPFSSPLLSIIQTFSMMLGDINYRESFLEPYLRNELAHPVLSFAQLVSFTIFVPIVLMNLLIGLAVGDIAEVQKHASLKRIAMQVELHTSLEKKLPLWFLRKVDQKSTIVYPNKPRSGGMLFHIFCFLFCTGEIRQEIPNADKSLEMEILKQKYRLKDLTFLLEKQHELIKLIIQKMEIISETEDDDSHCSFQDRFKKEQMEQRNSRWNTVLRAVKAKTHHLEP

mTRPA1 = mTRPA1 (Mus musculus, UniProt Q8BLA8); assay: whole-cell patch clamp, evoked inward current
Sequence of mTRPA1 (Q8BLA8 whole entry): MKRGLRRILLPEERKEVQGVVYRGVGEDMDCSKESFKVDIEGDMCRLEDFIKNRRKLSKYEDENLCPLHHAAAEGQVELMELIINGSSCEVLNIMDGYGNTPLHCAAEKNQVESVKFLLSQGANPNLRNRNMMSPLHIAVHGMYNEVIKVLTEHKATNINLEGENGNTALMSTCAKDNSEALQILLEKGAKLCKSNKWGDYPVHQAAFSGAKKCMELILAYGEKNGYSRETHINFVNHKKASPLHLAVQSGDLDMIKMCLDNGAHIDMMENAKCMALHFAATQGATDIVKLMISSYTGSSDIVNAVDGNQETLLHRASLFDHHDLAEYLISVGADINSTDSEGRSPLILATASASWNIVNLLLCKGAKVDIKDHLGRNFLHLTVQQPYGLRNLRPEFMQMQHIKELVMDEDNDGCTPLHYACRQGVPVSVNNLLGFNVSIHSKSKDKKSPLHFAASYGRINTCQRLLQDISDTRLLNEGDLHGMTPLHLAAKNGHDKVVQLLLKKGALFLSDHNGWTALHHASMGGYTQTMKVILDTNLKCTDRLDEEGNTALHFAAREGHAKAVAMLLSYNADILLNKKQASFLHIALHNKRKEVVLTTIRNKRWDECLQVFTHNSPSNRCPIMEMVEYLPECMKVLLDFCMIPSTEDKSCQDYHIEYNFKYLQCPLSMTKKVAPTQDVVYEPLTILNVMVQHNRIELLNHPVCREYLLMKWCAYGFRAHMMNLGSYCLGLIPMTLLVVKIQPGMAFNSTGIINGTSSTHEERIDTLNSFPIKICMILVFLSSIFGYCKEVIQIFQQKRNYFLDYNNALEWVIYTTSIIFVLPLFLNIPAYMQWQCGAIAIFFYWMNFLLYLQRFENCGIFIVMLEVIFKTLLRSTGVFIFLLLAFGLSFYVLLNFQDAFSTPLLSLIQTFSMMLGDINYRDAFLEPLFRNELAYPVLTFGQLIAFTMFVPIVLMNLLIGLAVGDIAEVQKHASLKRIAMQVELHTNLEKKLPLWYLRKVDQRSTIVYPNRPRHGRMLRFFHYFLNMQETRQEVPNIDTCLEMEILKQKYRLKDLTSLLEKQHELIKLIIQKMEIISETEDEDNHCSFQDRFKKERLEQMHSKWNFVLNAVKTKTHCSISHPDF

rTRPV1 [4] = target: T1, rTRPV1; assay: whole-cell patch clamp, evoked inward current; assay type: cell-based; conditions: agonist; 10% PG (1366 mM); HEK293t, -60 mV, room temperature, pH 7.4

T1 sequence (O35433 whole entry): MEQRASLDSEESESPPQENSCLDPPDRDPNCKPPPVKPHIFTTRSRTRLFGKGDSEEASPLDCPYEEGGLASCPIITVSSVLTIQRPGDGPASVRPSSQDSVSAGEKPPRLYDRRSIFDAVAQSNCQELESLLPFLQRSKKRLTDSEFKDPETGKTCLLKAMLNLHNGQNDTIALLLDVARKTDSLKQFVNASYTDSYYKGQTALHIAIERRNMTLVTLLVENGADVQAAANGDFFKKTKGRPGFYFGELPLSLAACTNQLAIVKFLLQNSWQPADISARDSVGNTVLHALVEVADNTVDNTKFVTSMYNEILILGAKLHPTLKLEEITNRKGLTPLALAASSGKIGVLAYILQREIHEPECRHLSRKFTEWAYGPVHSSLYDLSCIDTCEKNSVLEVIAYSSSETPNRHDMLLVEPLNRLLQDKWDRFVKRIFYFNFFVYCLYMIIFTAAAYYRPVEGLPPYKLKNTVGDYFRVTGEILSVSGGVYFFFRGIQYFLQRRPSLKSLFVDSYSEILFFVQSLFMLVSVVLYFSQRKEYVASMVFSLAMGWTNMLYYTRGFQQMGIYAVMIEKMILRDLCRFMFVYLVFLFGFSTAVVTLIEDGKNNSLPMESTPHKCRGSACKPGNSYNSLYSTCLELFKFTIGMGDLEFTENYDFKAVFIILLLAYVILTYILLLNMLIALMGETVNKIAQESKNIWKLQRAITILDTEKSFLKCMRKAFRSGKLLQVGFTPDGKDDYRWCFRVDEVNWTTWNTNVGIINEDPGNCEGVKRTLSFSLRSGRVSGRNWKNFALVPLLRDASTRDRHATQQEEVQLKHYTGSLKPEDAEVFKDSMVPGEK
Sequence of hTRPA1 (Homo sapiens, UniProt O75762, C621S/C641S/C665S) (O75762 whole entry C621S/C641S/C665S): as the sequence (O75762 whole entry) above, with C621S, C641S, C665S counted along it

Compound	% current reduction at 100 μM (rTRPV1 [1])	EC50 (hTRPA1 [2]) [µM]	EC50 (hTRPA1 [3]) [µM]	EC50 (mTRPA1) [µM]	current density at 10% PG (rTRPV1 [4]) [pA/pF]
CCOC(=O)c1cncn1[C@H](C)c1ccccc1 [etomidate]	32 (95% CI: 20.2–43.8)	~1390	73	375	–
CC(O)CO (centres unmarked) [propylene glycol]	–	–	–	–	215 ± 26

Reference: PMC6856977 (Molecular Pain, 2018)
